Measured values reported in ChEMBL document CHEMBL1140617, “Quantitative structure-activity relationship of sesquiterpene lactones with cytotoxic activity” (2007).
Converted amounts (≈) assume the structure as drawn.

Test system: KB
Experiment: Cytotoxicity against human KB cells
Format: functional
Conditions: for EC50: Homo sapiens, KB, read-out: ED50 (the source's name)

Row | SMILES | pED50 | EC50 [mg/L] | ED50 [mg/L] | ED100 [µg/mL]
1 | C=C1C(=O)O[C@@H]2[C@H]1CC[C@H](C)[C@@H]1C[C@@H](O)C(=O)[C@@]21C | 5 | 2.65 (≈ 10 µM) | – | –
2 | C=C1C(=O)O[C@H]2[C@H]1[C@H](OC(=O)/C(C)=C\C)C[C@@]1(CO1)[C@@H]1[C@H](O)[C@H]3O[C@@]3(C)[C@]21O | 5.18 | 2.6 (≈ 6.63 µM) | – | –
3 | C=C1C(=O)O[C@H]2C[C@@H](C)[C@@H]3C=CC(=O)[C@@]3(C)C[C@H]12 (single isomer, unassigned) [AROMATICIN] | 5.86 | 0.34 (≈ 1.38 µM) | – | –
4 | C=C1C(=O)O[C@H]2[C@H]1[C@H](OC(=O)/C(C)=C\C)C[C@](O)(CCl)[C@@H]1[C@H](O)[C@H]3O[C@@]3(C)[C@]21O (single isomer, unassigned) [EUPACHLOROXIN] | 5.08 | 3.6 (≈ 8.39 µM) | – | –
5 | C=C1C(=O)O[C@@H]2/C=C(/C)[C@@H](OC(C)=O)CC(O)/C(C)=C\[C@@H](OC(=O)C3(C)O[C@@H]3C)[C@@H]12 (single isomer, unassigned) [EUPACUNOXIN] | 5.3 | 2.1 (≈ 4.99 µM) | – | –
6 | C=C1C(=O)O[C@H]2C[C@@H](C)[C@@H]3C=CC(=O)[C@@]3(C)[C@H](O)[C@H]12 (single isomer, unassigned) [MEXICANIN I] | 5.9 | 0.33 (≈ 1.26 µM) | – | –
7 | C=C[C@@]12COC(=O)C(=C)[C@@H]1[C@H]1OC(=O)C(=C)[C@@H]1[C@@H](OC(=O)C(=C)C)C2 (single isomer, unassigned) [VERNOLEPIN METHACRYLATE] | 5.91 | 0.42 (≈ 1.22 µM) | – | –
8 | C=C1C(=O)O[C@@H]2C[C@@H](C)[C@@H]3C=CC(=O)[C@@]3(C)[C@@H](O)[C@H]12 (stereo in doubt) [HELENALIN] | 6.12 | 0.2 (≈ 0.762 µM) | – | –
9 | C=C1C(=O)O[C@H]2[C@H]1[C@H](OC(=O)/C(C)=C\C)CC(=C)[C@@H]1[C@H](O)[C@H]3O[C@@]3(C)[C@@]12O (stereo in doubt; 20) [EUPATUNDIN] | 6.46 | – | 0.47 (≈ 1.25 µM) | –
10 | C=C1C(=O)O[C@H]2[C@H]1[C@H](OC(=O)/C(C)=C\C)CC(=C)[C@@H]1[C@H](O)[C@H]3O[C@@]3(C)[C@@]12O (stereo in doubt; 28) [EUPATUNDIN] | 5.98 | 0.47 (≈ 1.25 µM) | – | –
11 | C=C1C(=O)O[C@@H]2[C@H]1CC[C@H](C)[C@@H]1C=CC(=O)[C@@]21C [AMBROSIN] | 5.74 | 0.45 (≈ 1.83 µM) | – | –
12 | C=C1C(=O)O[C@H]2C/C(C)=C/C[C@@H](OC(C)=O)/C(C)=C/[C@@H](OC(C)=O)[C@H]12 [CHAMISSONIN DIACETATE] | 5.68 | 2.13 | – | –
13 | C=C1C(=O)O[C@@H]2[C@H]1CC[C@H](C)[C@]1(O)CCC(=O)[C@@]21C [CORONOPILIN] | 5.26 | 1.45 (≈ 5.49 µM) | – | –
14 | C=C1C(=O)O[C@@H]2/C=C(\C)CCC=C(C)CC[C@@H]12 [COSTUNOLIDE] | 5.61 | 0.57 (≈ 2.45 µM) | – | –
15 | C=C1C(=O)O[C@@H]2[C@H]1[C@@H](O)C[C@H](C)[C@@H]1CCC(=O)[C@@]21C [DESACETYLCONFERTIFLORIN] | 5.06 | 2.3 (≈ 8.7 µM) | – | –
16 | C=C1C(=O)O[C@H]2[C@H]1[C@@H](OC(=O)C=C(C)C)CC1=C[C@@H](C[C@@]3(C)O[C@H]23)OC1=O [ELEPHANTIN] | 5.49 | 1.16 (≈ 3.1 µM) | – | –
17 | C=C1C(=O)O[C@H]2CC3=C[C@@H](C[C@]4(C)O[C@@H]4[C@@H](O)[C@H]12)OC3=O [ELEPHANTOL] | 3.91 | 36 (≈ 123 µM) | – | –
18 | C=C(C)C(=O)O[C@H]1CC2=C[C@@H](C[C@@]3(C)O[C@@H]3[C@H]3OC(=O)C(=C)[C@@H]31)OC2=O [ELEPHANTOPIN] | 5.6 | 0.94 (≈ 2.61 µM) | – | –
19 | C=C1C(=O)O[C@H]2[C@H]1[C@H](OC(=O)/C(C)=C\C)C[C@](O)(CCl)[C@@H]1[C@H](OC(C)=O)C=C(C)[C@]21O [EUPACHLORIN ACETATE] | 5.21 | 0.16 | – | –

Row | SMILES | pED50 | EC50 [mg/L] | ED50 [mg/L] | ED100 [µg/mL]
20 | C=C1C(=O)O[C@H]2[C@H]1[C@H](OC(=O)/C(C)=C\C)C[C@](O)(CCl)[C@@H]1[C@H](O)C=C(C)[C@]21O [EUPACHLORIN] | 6.29 | 0.21 (≈ 0.509 µM) | – | –
21 | C=C1C(=O)O[C@@H]2/C=C(/CO)[C@@H](OC(C)=O)C[C@H](O)/C(C)=C\[C@@H](OC(=O)C(C)=CC)[C@@H]12 [EUPACUNOLIN] | 5.06 | 3.7 (≈ 8.8 µM) | – | –
22 | C=C1C(=O)O[C@H]2[C@H]1[C@H](OC(=O)/C(C)=C\C)C[C@]1(CO1)[C@@H]1[C@H](OC(C)=O)C=C(C)[C@]21O [EUPAROTIN ACETATE] | 6.28 | 0.22 | – | –
23 | C=C1C(=O)O[C@H]2[C@H]1[C@H](OC(=O)/C(C)=C/C)C[C@]1(CO1)[C@@H]1[C@H](O)C=C(C)[C@]21O [EUPAROTIN] | 6.25 | – | – | 0.21
24 | C=C1C(=O)O[C@@H]2/C=C(\C)[C@@H](OC(C)=O)C/C=C(/C)C(O)[C@@H](OC(=O)/C(C)=C\C)[C@@H]12 (some centres undefined) [EUPATOCUNIN] | 6.57 | 0.11 (≈ 0.272 µM) | – | –
25 | C=C1C(=O)O[C@@H]2/C=C(\C)[C@@H](OC(C)=O)CC=C(C)C(OC(=O)[C@]3(C)O[C@@H]3C)C(O)[C@@H]12 (some centres undefined) [EUPATOCUNOXIN] | 5.39 | 1.7 (≈ 4.04 µM) | – | –
26 | C=C1C(=O)O[C@H]2[C@H]1[C@H](OC(=O)/C(C)=C\C)C[C@]1(CO1)[C@@H]1[C@H](O)[C@H]3O[C@@]3(C)[C@]21O [EUPATOROXIN] | 5.15 | 2.8 (≈ 7.14 µM) | – | –
27 | C=C1C(=O)O[C@H]2C=C(C)[C@H]3[C@@H](OC(C)=O)C[C@@](C)(O)[C@@H]3C[C@H]12 [GAILLARDIN] | 5.12 | 2.3 (≈ 7.51 µM) | – | –
28 | C=C1C(=O)O[C@@H]2/C=C(/C)[C@@]3(O)C=C[C@@](C)(C[C@@H](OC(=O)/C(=C\C)COC(C)=O)[C@@H]12)O3 [LIATRIN] | 5.41 | 1.62 (≈ 3.87 µM) | – | –
29 | C=C1C(=O)O[C@@H]2[C@H]1CC[C@H](C)[C@]1(O)C=CC(=O)[C@@]21C [PARTHENIN] | 5.89 | 0.34 (≈ 1.3 µM) | – | –
30 | C=C1C(=O)O[C@@H]2/C=C(\C)C[C@H](O)C=C(C)CC[C@@H]12 [TAMAULIPIN A] | 5.29 | 1.26 (≈ 5.07 µM) | – | –
31 | C=C1C(=O)O[C@@H]2/C=C(\C)[C@H](O)CC=C(C)CC[C@@H]12 [TAMAULIPIN B] | 4.98 | 2.6 (≈ 10.5 µM) | – | –
32 | C=C[C@@]12COC(=O)C(=C)[C@@H]1[C@H]1OC(=O)C(=C)[C@@H]1[C@@H](OC(=O)C(=C)CO)C2 [VERNODALIN] | 5.3 | 1.8 (≈ 4.99 µM) | – | –
33 | C=C[C@@]12COC(=O)C(=C)[C@@H]1[C@H]1OC(=O)C(=C)[C@@H]1[C@@H](OC(C)=O)C2 [VERNOLEPIN ACETATE] | 5.07 | 2.7 | – | –
34 | C=C[C@@]12COC(=O)C(=C)[C@@H]1[C@H]1OC(=O)C(=C)[C@@H]1[C@@H](O)C2 [VERNOLEPIN] | 5.19 | 1.8 (≈ 6.51 µM) | – | –
35 | C=C[C@]12COC(=O)C(=C)[C@H]1[C@H](OC(C)=O)[C@H]1C(=C)C(=O)O[C@@H]1C2 [VERNOMENIN ACETATE] | 4.58 | 8 | – | –
36 | C=C[C@@]12COC(=O)C(=C)[C@@H]1[C@@H](O)[C@@H]1C(=C)C(=O)O[C@H]1C2 [VERNOMENIN] | 3.9 | 35 (≈ 127 µM) | – | –
37 | C=C1C(=O)O[C@@H]2/C=C3\CCC4OC4(C[C@H](OC(=O)C(C)C)[C@@H]12)C(O)OC3 (some centres undefined) [VERNOMYGDIN] | 5.39 | 1.5 (≈ 4.12 µM) | – | –
